Results taken from patent US12428405B2, “Chalcone-based chemotherapeutic compound for triple negative breast cancer” (QATAR UNIVERSITY, priority 2019, dated 2025).

Legend:
BT-474 = assay: MTT cell viability; format: cell-based
Text: Breast cancer cell lines including MDA-MB-231, MDA-MB-468, MCF-7, BT-474 and SK-BR-3 were obtained from the American Type Tissue Culture (ATCC) and maintained in complete cell culture media Gibco® RPMI 1640 (Thermo Fisher Scientific, USA) supplemented with 10% fetal bovine serum (PAN-Biotech, Aidenbach, Bavaria, Germany) and 1% penicillin/streptomycin (1×) antibiotics (Thermo Fisher Scientific, USA). Human normal mammary epithelial cells immortalized by E6/E7 of HPV type 16 (HNME-E6/E7) were used to predict potential safety of the compounds (125, 126). They were maintained in Gibco® Keratinocyte-SFM (1×) media. All cells were incubated in 5% CO2 at 37° C. incubator. Cells were maintained by routine sub-culturing in T-75 and T25 filtered tissue culture flasks.
MDA-MB-231, MDA-MB-468, MCF-7, BT-474 and HNME-E6/E7 cells were seeded overnight in 96-well plates at a concentration of 8000-10,000/well depending on their pre-calculated cell density and were incubated overnight. At 24 hours, media was replaced with fresh one. The treatment wells included 6-8 different concentrations of the compounds ranging between 0.25 μM-160 μM. At 48 hours post treatment, 10 μL MTT solution was added to each well followed by 4 hours of incubation. Afterwards, media with MTT was removed from all wells and 50 μl DMSO was added to each well to dissolve the crystals. This was followed by 5 minutes incubation. Absorbance was recorded at a wavelength of 562 nm after 3 minutes of shaking using Infinite 200 PRO Microplate Reader (Tecan, Switzerland). Percentage of viable cells was calculated using the following formula: […]

EMT markers on MCF-7 = assay: Western blot of EMT markers; format: cell-based; conditions: 5 and 10 μM
Procedure: (§1) Proteins were quantified with the Pierce BCA Protein Assay Kit (Thermo Scientific, USA) following cell lysis. SDS-PAGE was prepared at a concentration of 10% for all studied proteins. All samples were loaded at 40 μg per 1.5 mm 15 wells comb. Running of stained samples was performed using two steps gel electrophoresis (60 Volts for 20 minutes followed by 120 Volts for 1 hour). Afterwards, gels were transferred into PVDF membrane at 100 Voltage for 1.5-2.0 hours using wet transfer. Following transfer, PVDF membranes were blocked with 5% skimmed milk and washed three times. Primary antibodies (Table 2.2) were prepared, then PVDF membrane were incubated with them overnight with gentle shaking at 4° C. Afterwards, membranes were washed three times and incubated with their respective secondary antibodies for 1-2 hours with gentle shaking at room temperature. Pierce™ ECL Western Blotting Substrate was used to detect proteins by chemiluminescence. Blots were imaged using the ibrightCL1000 imaging system.

[1] = test system: Epithelial Mesenchymal Transition (EMT) markers in MDA-MB-231 cells; assay: Western blot of EMT markers; format: cell-based
Procedure: as §1

[2] = Two-week safety and tolerability of the dose before inoculation; conditions: 10 mg/kg intraperitoneally for two weeks; n=5

## COc1cccc(C(=O)/C=C/c2ccc(N(CCCl)CCCl)cc2)c1 [Compound 14, (E)-3-(4-(Bis(2-chloroethyl)amino)phenyl)-1-(3-methoxyphenyl) prop-2-en-1-one]
BT-474; Homo sapiens, BT-474, 48 hours of treatment, Mean ± SEM (n = 3 × 3)
  IC50: 9.22 ± 0.78 µM
BT-474; ratio of LD50 on HNME-E6/E7 to IC50 on BT-474
  SI of HNME/BT-474 (selective index): 2.24
EMT markers on MCF-7
  E-cadherin expression: concentration dependent upregulation
  pan-cadherin expression: upregulated by compound 14 in a concentration dependent manner
[1]; 5 and 10 μM
  E-cadherin expression: concentration dependent upregulation
  pan-cadherin expression: upregulated by compound 14 in a concentration dependent manner
[1]; MDA-MB-231
  Focal adhesion kinase (FAK) expression: downregulated
[1]; cell line not named in the sentence (FIG. 3.24, FIG. 3.25)
  expression of β-catenin and its phosphorylated form: No significant changes
[1]; summary statement
  EMT (in words): reversal of EMT
[2]
  clinical observations, tolerability (in words): did not show any changes in the mice food intake, weights, or shape
